Source: patent publication US10639287B2, “Compounds for the treatment of mitochondrial diseases” (UNIVERSITE PARIS-SUD, priority 2014, dated 2020)

Tests used:
[1] = tested on: homozygous TB2143 nematodes (polg-1(ok1548Δ/Δ)); assay: Gonad and/or intestinal extrusion (premature death) of homozygous nematodes; format: in vivo, Caenorhabditis elegans; settings: 50 μM, until 7th day of adulthood
Description: Ten homozygous TB2143 larvae (polg-1(ok1548Δ/Δ)) at stage L4 were deposited on each NGM dish containing either DMSO or 50 μM clofilium tosylate (three dishes for each treatment group) and incubated at 20° C. Their survival was monitored until the 7th day of adulthood. The number of dead animals, not responding to any stimulation, and having intestinal and/or gonad extrusion was counted. The few animals that died of dehydration at the edge of the petri dishes were excluded from the analysis.

[2] = tested on: mitochondrial proteins POLG, TFAM and ATP5B; assay: Amount of POLG, TFAM and ATP5B proteins in fibroblasts (western blot), cell growth conditions; format: cell-based, human; settings: 0.5 μM or 1.0 μM, control and patient fibroblasts
Description: Protein fractions of total extracts of control fibroblasts and of fibroblasts from a patient with a mutation on each allele of the POLG gene cultured in the presence of 0.1% DMSO or with 0.5 μM or 1.0 μM clofilium tosylate were analysed by electrophoresis.
Skin fibroblasts from the control and from the patient were cultured to 100% confluence in a complete Dulbecco's Modified Eagle Medium (DMEM) high glucose medium (4.5 g/L D-glucose, 110 mg/L sodium pyruvate, 10% foetal bovine serum, 1% penicillin/streptomycin from the stock solution containing 10,000 I.U. penicillin and 10,000 μg/mL streptomycin) at 37° C. under 5% CO2. At confluence, the cultures were trypsinised and placed in culture at 30% confluence in a complete DMEM high glucose medium supplemented with either 0.1% DMSO or with 0.5 μM or 1.0 μM clofilium tosylate. The cells were then incubated at 37° C. under 5% CO2 and harvested at 100% confluence. After trypsinisation, the total proteins of the fibroblasts were extracted and analysed by western blot. The proteins studied were the POLG protein (subjected to SDS/PAGE gel analysis (6%)), the mitochondrial proteins ATP5B and TFAM, and the cytosolic protein TUB3A as batch control.

[3] = tested on: neuronal cybrids derived from a MELAS patient (m.3243A>G tRNA^Leu mutation); assay: Lactate production of MELAS neuronal cybrids; format: cell-based, human; settings: 300 nM, 48 hours
Description: The increase in the lactate production is the result of a toxicity of the drug used, but also of a mitochondrial dysfunction (energy deficiency) present in MELAS syndrome.
Neuronal cybrid lines carrying the MELAS mutation and the parental control line were grown in sterile culture flasks and incubated at 37° C. with 5% CO2 in a medium composed of DMEM with 1.5 g/L glucose, 2 mM L-glutamine and supplemented with 10% foetal bovine serum as well as uridine (5 μg/ml) and pyruvate (10 μg/mL). The cells were harvested by trypsinisation in exponential phase and were used for subsequent biochemical or molecular mitochondrial analyses.
The MELAS neuronal cybrid line carrying the mutation seemingly in the homoplasmic state (i.e. reaching almost 100% MELAS mutation) and the SHSY-5Y parental control line were used for measurements of enzyme activities. […] These cell pellets were then analysed by spectrophotometry with measurement of the different mitochondrial biochemical activities, particularly the activity of citrate synthase and the activity of complex I of the respiratory chain. […]
The lactate concentration of the culture medium for neuronal cybrid and parental cells was determined by spectrophotometry using an enzymatic kit (Bohringer) on a Hitachi-Roche apparatus (Roche Diagnostics GmbH). […]

[4] = tested on: homozygous TB2143 nematodes (polg-1(ok1548Δ/Δ)); assay: Amount of mtDNA of homozygous nematodes depleted of mtDNA; format: in vivo, Caenorhabditis elegans
Description: Ten homozygous or wild-type TB2143 larvae (polg-1(ok1548Δ/Δ)) at stage L4 were deposited on each NGM dish containing either DMSO or 50 μM clofilium tosylate (three dishes for each treatment group). They were incubated at 20° C. until the 6th day of adulthood. Extraction of the total nematode DNAs was performed with the Nucleospin Kit Tissue kit (Macherey Nagel). The quantifications of mtDNA and nuclear DNA were performed as described in Addo et al., 2010 (Addo, M. G., Cossard, R., Pichard, D., Obiri-Danso, K., Rötig, A. and Delahodde, A. (2010) Caenorhabditis elegans, a pluricellular model organism to screen new genes involved in mitochondrial genome maintenance. BBA-Mol. Basis Dis., 1802, 765-773).

CCCCCCC[N+](CC)(CC)CCCCc1ccc(Cl)cc1.Cc1ccc(S(=O)(=O)[O-])cc1 [clofilium tosylate]
premature death by gonad and/or intestinal extrusion [1]: reduced
amount of mitochondrial proteins POLG, TFAM and ATP5B [2]: increased
production of lactate [3]: without increasing
amount of mtDNA of homozygous TB2143 nematodes ([4]; 50 μM vs DMSO): Clofilium tosylate increased the amount of mtDNA of homozygous TB2143 nematodes (polg-1(ok1548Δ/Δ)) depleted of mtDNA.
mtDNA/nuDNA ([4]; polg-1(ok1548Δ/Δ), 50 μM, 6th day of adulthood): 69.2
